# Assay results: patent publication US10131652B2, “Pyrimidinyloxy benzene derivatives as herbicides” (E. I. DU PONT DE NEMOURS AND COMPANY, priority 2014, dated 2018)
# Read-outs that look alike come from different tables or passages of the source.
# Legend:
# Experiment in all cases: Test F pre-/postemergence plant response
# Assay type in all cases: in vivo
# [1] = system: giant foxtail (Setaria faberii); conditions: Setaria faberi, pre-emergence, scale 0 to 100, read-out: Plant response rating, Foxtail, Giant
# Outline: (§1)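 Plant response is a visual score from 0, meaning no effect, to 100, meaning complete control, assigned by comparison with untreated plants. Ratings were made 14 to 21 days after preemergence application to seeded silt loam or postemergence application to plants at the 1- to 4-leaf stage.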
# soybean (Glycine max) = conditions: Glycine max, scale 0 to 100, read-out: Plant response rating, Soybean
# Outline: as §1
# [2] = system: goosegrass (Eleusine indica); conditions: Eleusine indica, pre-emergence, scale 0 to 100, read-out: Plant response rating, Goosegrass
# Outline: as §1
# [3] = system: lambsquarters (Chenopodium album); conditions: Chenopodium album, pre-emergence, scale 0 to 100, read-out: Plant response rating, Lambsquarters
# Outline: as §1
# [4] = system: palmer pigweed (Amaranthus palmeri); conditions: Amaranthus palmeri, scale 0 to 100, read-out: Plant response rating, Pigweed, Palmer
# Outline: as §1
# [5] = system: Brazilian crabgrass (Digitaria horizontalis); conditions: Digitaria horizontalis, scale 0 to 100, read-out: Plant response rating, Crabgrass, Brazil
# Outline: as §1
# [6] = system: dayflower (Virginia (VA) dayflower, Commelina virginica); conditions: Commelina virginica, scale 0 to 100, read-out: Plant response rating, Dayflower, VA
# Outline: as §1
# [7] = system: field bindweed (Convolvulus arvensis); conditions: Convolvulus arvensis, scale 0 to 100, read-out: Plant response rating, Field Bindweed
# Outline: as §1
# [8] = system: green foxtail (Setaria viridis); conditions: Setaria viridis, pre-emergence, scale 0 to 100, read-out: Plant response rating, Foxtail, Green
# Outline: as §1
# [9] = system: johnsongrass (Sorghum halepense); conditions: Sorghum halepense, pre-emergence, scale 0 to 100, read-out: Plant response rating, Johnsongrass
# Outline: as §1
# corn (Zea mays) = conditions: Zea mays, scale 0 to 100
# Outline: as §1
# [10] = system: waterhemp (common waterhemp, Amaranthus rudis); conditions: Amaranthus tuberculatus, scale 0 to 100, read-out: Plant response rating, Waterhemp
# Outline: as §1
# [11] = system: fall panicum (Panicum dichotomiflorum); conditions: Panicum dichotomiflorum, scale 0 to 100, read-out: Plant response rating, Panicum, Fall
# Outline: as §1
# [12] = system: morningglory (Ipomoea coccinea); conditions: Ipomoea, pre-emergence, scale 0 to 100, read-out: Plant response rating, Morningglory
# Outline: as §1
# [13] = system: wild poinsettia (Euphorbia heterophylla); conditions: Euphorbia heterophylla, scale 0 to 100, read-out: Plant response rating, Poinsettia, Wild
# Outline: as §1
# [14] = system: sandbur (southern sandbur, Cenchrus echinatus); conditions: Cenchrus echinatus, scale 0 to 100, read-out: Plant response rating, Sandbur
# Outline: as §1
# [15] = post-emergence, 8 g ai/ha Postemergence
# [16] = post-emergence, 16 g ai/ha Postemergence
# [17] = post-emergence, 31 g ai/ha Postemergence
# [18] = post-emergence, 62 g ai/ha Postemergence
# [19] = post-emergence, 125 g ai/ha Postemergence
# [20] = pre-emergence, 8 g ai/ha Preemergence
# [21] = pre-emergence, 16 g ai/ha Preemergence
# [22] = pre-emergence, 31 g ai/ha Preemergence
# [23] = pre-emergence, 125 g ai/ha Preemergence
# [24] = pre-emergence, 62 g ai/ha Preemergence
compound,measurement,setting,value
"FC(F)c1cc(-c2ccccc2Oc2ncc(Br)cn2)no1 [Compound 62, 5-bromo-2-[2-[5-(difluoromethyl)-3-isoxazolyl]phenoxy]pyrimidine]",pest or weed control at 8 g/ha,[1]; 8 g ai/ha Preemergence,0%
same,pest or weed control at 16 g/ha,[1]; 16 g ai/ha Preemergence,15%
same,pest or weed control at 31 g/ha,[1]; 31 g ai/ha Preemergence,35%
same,pest or weed control at 62 g/ha,[1]; 62 g ai/ha Preemergence,65%
same,pest or weed control at 125 g/ha,[1]; 125 g ai/ha Preemergence,75%
same,plant injury at 8 g/ha,soybean (Glycine max); [15],10%
same,plant injury at 16 g/ha,soybean (Glycine max); [16],20%
same,plant injury at 31 g/ha,soybean (Glycine max); [17],40%
same,plant injury at 62 g/ha,soybean (Glycine max); [18],65%
same,plant injury at 125 g/ha,soybean (Glycine max); [19],85%
same,plant injury at 8 g/ha,soybean (Glycine max); [20],0%
same,plant injury at 16 g/ha,soybean (Glycine max); [21],0%
same,plant injury at 31 g/ha,soybean (Glycine max); [22],0%
same,plant injury at 125 g/ha,soybean (Glycine max); [23],40%
same,plant injury at 62 g/ha,"soybean (Glycine max); pre-emergence, Preemergence",10%
same,pest or weed control at 8 g/ha,[2]; 8 g ai/ha Preemergence,0%
same,pest or weed control at 16 g/ha,[2]; 16 g ai/ha Preemergence,0%
same,pest or weed control at 31 g/ha,[2]; 31 g ai/ha Preemergence,0%
same,pest or weed control at 125 g/ha,[2]; 125 g ai/ha Preemergence,75%
same,pest or weed control at 62 g/ha,[2]; Preemergence,5%
same,pest or weed control at 8 g/ha,[3]; 8 g ai/ha Preemergence,70%
same,pest or weed control at 16 g/ha,"[3]; 16 g ai/ha, Preemergence",90%
same,pest or weed control at 31 g/ha,"[3]; 31 g ai/ha, Preemergence",95%
same,pest or weed control at 125 g/ha,"[3]; 125 g ai/ha, Preemergence",100%
same,pest or weed control at 62 g/ha,[3]; Preemergence,95%
same,pest or weed control at 8 g/ha,[4]; [15],90%
same,pest or weed control at 16 g/ha,[4]; [16],70%
same,pest or weed control at 31 g/ha,[4]; [17],95%
same,pest or weed control at 62 g/ha,[4]; [18],100%
same,pest or weed control at 125 g/ha,[4]; [19],100%
same,pest or weed control at 8 g/ha,[4]; [20],10%
same,pest or weed control at 16 g/ha,[4]; [21],80%
same,pest or weed control at 31 g/ha,[4]; [22],75%
same,pest or weed control at 125 g/ha,[4]; [23],100%
same,pest or weed control at 62 g/ha,"[4]; pre-emergence, Preemergence",100%
same,pest or weed control at 8 g/ha,[5]; [15],0%
same,pest or weed control at 16 g/ha,[5]; [16],0%
same,pest or weed control at 31 g/ha,[5]; [17],10%
same,pest or weed control at 62 g/ha,[5]; [18],15%
same,pest or weed control at 125 g/ha,[5]; [19],10%
same,pest or weed control at 8 g/ha,[5]; [20],0%
same,pest or weed control at 16 g/ha,[5]; [21],0%
same,pest or weed control at 31 g/ha,[5]; [22],75%
same,pest or weed control at 62 g/ha,[5]; [24],100%
same,pest or weed control at 125 g/ha,[5]; [23],100%
same,pest or weed control at 8 g/ha,[6]; [15],0%
same,pest or weed control at 16 g/ha,[6]; [16],0%
same,pest or weed control at 31 g/ha,[6]; [17],5%
same,pest or weed control at 62 g/ha,[6]; [18],25%
same,pest or weed control at 125 g/ha,[6]; [19],65%
same,pest or weed control at 8 g/ha,[6]; [20],0%
same,pest or weed control at 16 g/ha,[6]; [21],0%
same,pest or weed control at 31 g/ha,[6]; [22],0%
same,pest or weed control at 62 g/ha,[6]; [24],30%
same,pest or weed control at 125 g/ha,[6]; [23],80%
same,pest or weed control at 8 g/ha,[7]; [15],40%
same,pest or weed control at 16 g/ha,[7]; [16],40%
same,pest or weed control at 31 g/ha,[7]; [17],35%
same,pest or weed control at 62 g/ha,[7]; [18],50%
same,pest or weed control at 125 g/ha,[7]; [19],75%
same,pest or weed control at 8 g/ha,[7]; [20],0%
same,pest or weed control at 16 g/ha,[7]; [21],0%
same,pest or weed control at 31 g/ha,[7]; [22],0%
same,pest or weed control at 62 g/ha,[7]; [24],0%
same,pest or weed control at 125 g/ha,[7]; [23],0%
same,pest or weed control at 8 g/ha,[8]; 8 g ai/ha Preemergence,0%
same,pest or weed control at 16 g/ha,"[8]; 16 g ai/ha, Preemergence",0%
same,pest or weed control at 31 g/ha,"[8]; 31 g ai/ha, Preemergence",10%
same,pest or weed control at 125 g/ha,"[8]; 125 g ai/ha, Preemergence",90%
same,pest or weed control at 62 g/ha,[8]; Preemergence,40%
same,pest or weed control at 8 g/ha,[9]; 8 g ai/ha Preemergence,0%
same,pest or weed control at 16 g/ha,[9]; 16 g ai/ha Preemergence,0%
same,pest or weed control at 31 g/ha,[9]; 31 g ai/ha Preemergence,20%
same,pest or weed control at 125 g/ha,[9]; 125 g ai/ha Preemergence,40%
same,pest or weed control at 62 g/ha,[9]; Preemergence,35%
same,"Corn plant response rating (crop injury, 0 = no effect, 100 = complete kill) at 8 g/ha",corn (Zea mays); [15],0%
same,"Corn plant response rating (crop injury, 0 = no effect, 100 = complete kill) at 16 g/ha",corn (Zea mays); [16],0%
same,"Corn plant response rating (crop injury, 0 = no effect, 100 = complete kill) at 31 g/ha",corn (Zea mays); [17],0%
same,"Corn plant response rating (crop injury, 0 = no effect, 100 = complete kill) at 62 g/ha",corn (Zea mays); [18],5%
same,"Corn plant response rating (crop injury, 0 = no effect, 100 = complete kill) at 125 g/ha",corn (Zea mays); [19],10%
same,"Corn plant response rating (crop injury, 0 = no effect, 100 = complete kill) at 8 g/ha",corn (Zea mays); [20],0%
same,"Corn plant response rating (crop injury, 0 = no effect, 100 = complete kill) at 16 g/ha",corn (Zea mays); [21],0%
same,"Corn plant response rating (crop injury, 0 = no effect, 100 = complete kill) at 31 g/ha",corn (Zea mays); [22],0%
same,"Corn plant response rating (crop injury, 0 = no effect, 100 = complete kill) at 62 g/ha",corn (Zea mays); [24],0%
same,"Corn plant response rating (crop injury, 0 = no effect, 100 = complete kill) at 125 g/ha",corn (Zea mays); [23],0%
same,pest or weed control at 8 g/ha,[10]; [15],80%
same,pest or weed control at 16 g/ha,[10]; [16],90%
same,pest or weed control at 31 g/ha,[10]; [17],100%
same,pest or weed control at 62 g/ha,[10]; [18],100%
same,pest or weed control at 125 g/ha,[10]; [19],100%
same,pest or weed control at 8 g/ha,[10]; [20],80%
same,pest or weed control at 16 g/ha,[10]; [21],85%
same,pest or weed control at 31 g/ha,[10]; [22],98%
same,pest or weed control at 125 g/ha,[10]; [23],100%
same,pest or weed control at 62 g/ha,"[10]; pre-emergence, Preemergence",100%
same,pest or weed control at 8 g/ha,[11]; [15],0%
same,pest or weed control at 16 g/ha,[11]; [16],0%
same,pest or weed control at 31 g/ha,[11]; [17],5%
same,pest or weed control at 62 g/ha,[11]; [18],10%
same,pest or weed control at 125 g/ha,[11]; [19],60%
same,pest or weed control at 8 g/ha,[11]; [20],0%
same,pest or weed control at 16 g/ha,[11]; [21],0%
same,pest or weed control at 31 g/ha,[11]; [22],0%
same,pest or weed control at 125 g/ha,[11]; [23],100%
same,pest or weed control at 62 g/ha,"[11]; pre-emergence, Preemergence",95%
same,pest or weed control at 8 g/ha,[12]; 8 g ai/ha Preemergence,0%
same,pest or weed control at 16 g/ha,[12]; 16 g ai/ha Preemergence,0%
same,pest or weed control at 31 g/ha,[12]; 31 g ai/ha Preemergence,0%
same,pest or weed control at 125 g/ha,[12]; 125 g ai/ha Preemergence,50%
same,pest or weed control at 62 g/ha,[12]; Preemergence,0%
same,pest or weed control at 8 g/ha,[13]; [15],25%
same,pest or weed control at 16 g/ha,[13]; [16],35%
same,pest or weed control at 31 g/ha,[13]; [17],40%
same,pest or weed control at 62 g/ha,[13]; [18],50%
same,pest or weed control at 125 g/ha,[13]; [19],50%
same,pest or weed control at 8 g/ha,[13]; [20],0%
same,pest or weed control at 16 g/ha,[13]; [21],0%
same,pest or weed control at 31 g/ha,[13]; [22],30%
same,pest or weed control at 125 g/ha,[13]; [23],35%
same,pest or weed control at 62 g/ha,"[13]; pre-emergence, Preemergence",25%
same,pest or weed control at 8 g/ha,[14]; [15],0%
same,pest or weed control at 16 g/ha,[14]; [16],0%
same,pest or weed control at 31 g/ha,[14]; [17],0%
same,pest or weed control at 62 g/ha,[14]; [18],0%
same,pest or weed control at 125 g/ha,[14]; [19],0%
same,pest or weed control at 8 g/ha,[14]; [20],0%
same,pest or weed control at 16 g/ha,[14]; [21],0%
same,pest or weed control at 31 g/ha,[14]; [22],0%
same,pest or weed control at 125 g/ha,[14]; [23],35%
same,pest or weed control at 62 g/ha,"[14]; pre-emergence, Preemergence",0%
